# Experimental data as given in ChEMBL document CHEMBL5346859, “Dual-target Janus kinase (JAK) inhibitors: Comprehensive review on the JAK-based strategies for treating solid or hematological malignancies and immune-related diseases” (Eur J Med Chem, 2022).
# Tests used:
# [1] = system: MOLM-13; experiment: Antitumor activity against human MOLM-13 cells xenografted mouse model assessed as tumor growth inhibition at 150 mg/kg administered for 7 days relative to control; format: functional; conditions: MOLM-13, 168 h, time 7 day, read-out: TGI
# [2] = system: BaF3; experiment: Antitumor activity against mouse BaF3 cells harboring JAK2 V617F mutant implanted in BALB/c mouse model assessed as normalization rate of spleen weight at 150 mg/kg, po qd administered from day 4 post infection and measured after 14 days relative to control; format: functional; conditions: time 10 day
# [3] = system: BaF3; experiment: Antitumor activity against mouse BaF3 cells harboring JAK2 V617F mutant implanted in BALB/c mouse model assessed as normalization rate of liver weight at 150 mg/kg, po qd administered from day 4 post infection and measured after 14 days relative to control; format: functional; conditions: time 10 day
# [4] = system: MV4-11; experiment: Antitumor activity against human MV4-11 cells harboring FLT3 […] mutant xenografted acute myeloid leukemia BALB/c mouse model assessed as tumor growth inhibition at 40 mg/kg, po qd administered daily for 21 days relative to control; format: functional; conditions: MV4-11, 504 h, time 21 day, read-out: TGI
# [5] = target: T1, Tyrosine-protein kinase JAK2 (Homo sapiens, UniProt O60674); experiment: Inhibition of recombinant human JAK2 (808 to end residues) using biotinylated TK substrate in presence of [33P]ATP
# [6] = target: T1, Tyrosine-protein kinase JAK2; experiment: Inhibition of JAK2 (unknown origin) using FAM-labeled peptide as substrate preincubated with compound for 10 mins followed by substrate addition and measured after 60 mins in presence of ATP
# [7] = target: T2, Receptor-type tyrosine-protein kinase FLT3 (Homo sapiens, UniProt P36888); experiment: Inhibition of FLT3 (unknown origin) using FAM-labeled peptide as substrate preincubated with compound for 10 mins followed by substrate addition and measured after 60 mins in presence of ATP
# T2 sequence (P36888 whole entry): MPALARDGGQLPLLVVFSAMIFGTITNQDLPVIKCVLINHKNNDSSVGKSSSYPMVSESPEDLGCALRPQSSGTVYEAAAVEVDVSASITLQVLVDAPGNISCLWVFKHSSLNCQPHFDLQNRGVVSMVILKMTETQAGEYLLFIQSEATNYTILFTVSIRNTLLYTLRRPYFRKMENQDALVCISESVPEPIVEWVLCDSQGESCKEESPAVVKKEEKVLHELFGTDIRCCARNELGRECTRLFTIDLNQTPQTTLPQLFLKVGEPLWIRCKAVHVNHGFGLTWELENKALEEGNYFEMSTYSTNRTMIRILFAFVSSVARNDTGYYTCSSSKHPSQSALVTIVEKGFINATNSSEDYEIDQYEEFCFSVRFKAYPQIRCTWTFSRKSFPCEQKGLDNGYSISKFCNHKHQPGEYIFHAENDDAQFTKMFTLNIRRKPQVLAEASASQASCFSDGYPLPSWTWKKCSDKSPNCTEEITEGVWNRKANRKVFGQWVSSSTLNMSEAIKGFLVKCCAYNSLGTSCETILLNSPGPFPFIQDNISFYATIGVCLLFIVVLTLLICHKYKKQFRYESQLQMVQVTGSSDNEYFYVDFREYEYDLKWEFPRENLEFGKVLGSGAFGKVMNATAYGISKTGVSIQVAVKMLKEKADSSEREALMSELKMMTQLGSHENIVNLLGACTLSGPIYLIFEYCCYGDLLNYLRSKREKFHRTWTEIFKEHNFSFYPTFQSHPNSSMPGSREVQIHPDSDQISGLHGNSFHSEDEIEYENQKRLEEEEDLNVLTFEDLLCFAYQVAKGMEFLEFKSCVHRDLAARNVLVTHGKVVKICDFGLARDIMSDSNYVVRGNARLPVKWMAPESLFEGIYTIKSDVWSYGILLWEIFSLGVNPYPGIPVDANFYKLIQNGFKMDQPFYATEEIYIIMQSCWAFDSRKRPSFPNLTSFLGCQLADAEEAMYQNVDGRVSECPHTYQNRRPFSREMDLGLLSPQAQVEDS
# [8] = system: HEL; experiment: Antiproliferative activity against HEL cells assessed as inhibition of cell growth incubated for 48 hrs by CCK-8 assay; format: functional, cell-based; conditions: Homo sapiens
# [9] = system: MOLM-13; experiment: Antiproliferative activity against human MOLM-13 cells assessed as inhibition of cell growth incubated for 48 hrs by CCK-8 assay; format: functional, cell-based; conditions: MOLM-13, 48 h
# [10] = Metabolic stability in rat liver microsomes assessed as half life by LC-MS/MS analysis; format: ADME, Microsome
# [11] = target: Proto-oncogene tyrosine-protein kinase Src (Homo sapiens, UniProt P12931); experiment: Inhibition of recombinant c-Src (unknown origin) incubated for 120 mins in presence of [33P]-ATP by hotspot assay
# [12] = target: Tyrosine-protein kinase JAK1 (Homo sapiens, UniProt P23458); experiment: Inhibition of recombinant JAK1 (unknown origin) incubated for 120 mins in presence of [33P]-ATP by hotspot assay
# [13] = target: T1, Tyrosine-protein kinase JAK2; experiment: Inhibition of recombinant JAK2 (unknown origin) incubated for 120 mins in presence of [33P]-ATP by hotspot assay
# [14] = target: Non-receptor tyrosine-protein kinase TYK2 (Homo sapiens, UniProt P29597); experiment: Inhibition of recombinant TYK2 (unknown origin) incubated for 120 mins in presence of [33P]-ATP by hotspot assay
# [15] = system: MIA PaCa-2; experiment: Antiproliferative activity against human MIA PaCa-2 cells assessed as inhibition of cell growth incubated for 48 hrs by MTS assay; format: functional, cell-based; conditions: MIA PaCa-2, 48 h
# [16] = target: T1, Tyrosine-protein kinase JAK2
# [17] = target: T2, Receptor-type tyrosine-protein kinase FLT3
# T1 sequence (O60674 whole entry): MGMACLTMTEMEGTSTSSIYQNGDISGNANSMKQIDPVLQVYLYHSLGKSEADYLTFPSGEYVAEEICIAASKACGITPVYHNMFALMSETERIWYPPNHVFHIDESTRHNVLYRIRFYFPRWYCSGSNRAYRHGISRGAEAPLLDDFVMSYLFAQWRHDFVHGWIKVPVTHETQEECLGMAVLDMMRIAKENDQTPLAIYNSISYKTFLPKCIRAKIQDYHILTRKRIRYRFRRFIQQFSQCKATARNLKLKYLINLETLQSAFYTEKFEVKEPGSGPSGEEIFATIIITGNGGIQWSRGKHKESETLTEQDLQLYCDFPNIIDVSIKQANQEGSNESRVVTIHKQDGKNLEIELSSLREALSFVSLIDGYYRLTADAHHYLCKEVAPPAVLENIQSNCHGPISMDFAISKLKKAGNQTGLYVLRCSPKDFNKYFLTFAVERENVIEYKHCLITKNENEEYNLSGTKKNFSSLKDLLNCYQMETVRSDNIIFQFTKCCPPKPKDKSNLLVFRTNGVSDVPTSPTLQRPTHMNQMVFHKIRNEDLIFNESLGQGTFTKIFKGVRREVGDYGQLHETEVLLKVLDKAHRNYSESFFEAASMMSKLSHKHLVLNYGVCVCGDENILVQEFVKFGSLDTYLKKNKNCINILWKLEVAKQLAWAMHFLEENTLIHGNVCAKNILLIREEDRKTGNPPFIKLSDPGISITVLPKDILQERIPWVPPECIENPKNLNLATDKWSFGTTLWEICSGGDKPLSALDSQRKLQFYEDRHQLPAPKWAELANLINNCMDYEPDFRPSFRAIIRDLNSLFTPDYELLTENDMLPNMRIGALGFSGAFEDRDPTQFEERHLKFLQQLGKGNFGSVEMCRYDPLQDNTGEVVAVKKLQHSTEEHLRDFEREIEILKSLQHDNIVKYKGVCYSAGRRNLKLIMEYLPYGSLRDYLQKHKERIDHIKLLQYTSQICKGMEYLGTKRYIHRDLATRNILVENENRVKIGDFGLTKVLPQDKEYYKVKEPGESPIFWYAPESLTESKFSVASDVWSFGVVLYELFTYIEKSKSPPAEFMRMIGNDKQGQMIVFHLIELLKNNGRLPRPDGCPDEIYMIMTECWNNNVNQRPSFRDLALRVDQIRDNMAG
# Tyrosine-protein kinase JAK1, sequence (P23458 whole entry): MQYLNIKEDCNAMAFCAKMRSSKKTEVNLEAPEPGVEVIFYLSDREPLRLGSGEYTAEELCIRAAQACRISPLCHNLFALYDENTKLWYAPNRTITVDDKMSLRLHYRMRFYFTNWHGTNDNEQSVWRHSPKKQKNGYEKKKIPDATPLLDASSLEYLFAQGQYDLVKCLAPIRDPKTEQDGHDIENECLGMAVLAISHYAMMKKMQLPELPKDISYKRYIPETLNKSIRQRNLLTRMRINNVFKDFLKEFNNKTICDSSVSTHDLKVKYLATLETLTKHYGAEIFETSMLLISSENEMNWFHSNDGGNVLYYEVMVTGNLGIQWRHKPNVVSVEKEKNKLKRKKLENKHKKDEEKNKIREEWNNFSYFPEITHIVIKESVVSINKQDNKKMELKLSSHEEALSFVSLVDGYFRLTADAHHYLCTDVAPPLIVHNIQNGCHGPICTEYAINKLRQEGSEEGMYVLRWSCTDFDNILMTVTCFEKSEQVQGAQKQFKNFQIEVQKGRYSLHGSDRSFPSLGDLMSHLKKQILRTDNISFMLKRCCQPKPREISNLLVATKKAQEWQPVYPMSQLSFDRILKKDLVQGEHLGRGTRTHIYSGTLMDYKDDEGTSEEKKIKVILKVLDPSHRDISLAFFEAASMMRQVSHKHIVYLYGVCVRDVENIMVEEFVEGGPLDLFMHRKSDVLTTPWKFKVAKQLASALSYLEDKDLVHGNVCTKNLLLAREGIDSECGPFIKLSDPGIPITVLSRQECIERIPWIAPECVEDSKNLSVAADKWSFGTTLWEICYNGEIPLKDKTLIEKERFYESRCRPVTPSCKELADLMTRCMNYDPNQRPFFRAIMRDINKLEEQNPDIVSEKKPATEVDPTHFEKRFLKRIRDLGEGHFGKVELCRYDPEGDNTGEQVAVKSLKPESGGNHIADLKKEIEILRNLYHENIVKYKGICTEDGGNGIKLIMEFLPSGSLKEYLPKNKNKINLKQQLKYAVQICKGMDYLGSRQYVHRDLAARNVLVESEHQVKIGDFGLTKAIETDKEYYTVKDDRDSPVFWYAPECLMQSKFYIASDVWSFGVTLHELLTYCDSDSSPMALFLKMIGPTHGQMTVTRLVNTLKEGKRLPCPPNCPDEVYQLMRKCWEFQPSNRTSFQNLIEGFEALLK
# Non-receptor tyrosine-protein kinase TYK2, sequence (P29597 whole entry): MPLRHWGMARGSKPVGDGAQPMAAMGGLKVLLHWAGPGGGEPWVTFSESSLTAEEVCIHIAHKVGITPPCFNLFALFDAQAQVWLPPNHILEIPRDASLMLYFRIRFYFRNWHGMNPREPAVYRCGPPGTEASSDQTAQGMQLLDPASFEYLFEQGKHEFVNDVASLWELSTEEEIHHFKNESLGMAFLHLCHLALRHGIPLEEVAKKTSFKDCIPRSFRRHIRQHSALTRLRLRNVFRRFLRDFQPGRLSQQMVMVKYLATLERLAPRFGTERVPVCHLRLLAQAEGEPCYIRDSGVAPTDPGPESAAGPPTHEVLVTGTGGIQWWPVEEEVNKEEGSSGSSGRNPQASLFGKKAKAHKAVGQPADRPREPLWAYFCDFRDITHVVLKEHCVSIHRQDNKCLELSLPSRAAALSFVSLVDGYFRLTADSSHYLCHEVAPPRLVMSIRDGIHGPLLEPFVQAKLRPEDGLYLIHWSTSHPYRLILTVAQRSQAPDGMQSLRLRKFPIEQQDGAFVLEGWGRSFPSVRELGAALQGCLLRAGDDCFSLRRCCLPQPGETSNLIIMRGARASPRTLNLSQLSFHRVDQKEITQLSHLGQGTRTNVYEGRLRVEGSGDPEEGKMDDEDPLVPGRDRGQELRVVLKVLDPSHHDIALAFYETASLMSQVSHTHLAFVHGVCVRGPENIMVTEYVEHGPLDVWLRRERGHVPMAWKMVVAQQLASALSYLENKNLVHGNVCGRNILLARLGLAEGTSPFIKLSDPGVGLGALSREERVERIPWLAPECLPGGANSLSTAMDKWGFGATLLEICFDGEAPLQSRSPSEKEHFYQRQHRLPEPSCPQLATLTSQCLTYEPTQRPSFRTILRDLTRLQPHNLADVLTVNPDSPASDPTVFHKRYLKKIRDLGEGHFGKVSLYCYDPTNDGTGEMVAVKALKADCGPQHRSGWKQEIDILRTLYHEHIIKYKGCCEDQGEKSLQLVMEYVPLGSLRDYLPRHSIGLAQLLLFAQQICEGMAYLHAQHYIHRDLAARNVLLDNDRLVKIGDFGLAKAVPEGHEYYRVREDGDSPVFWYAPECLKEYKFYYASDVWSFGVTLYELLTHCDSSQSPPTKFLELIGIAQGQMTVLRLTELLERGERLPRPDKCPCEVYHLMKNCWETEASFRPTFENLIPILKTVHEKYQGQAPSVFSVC
# Proto-oncogene tyrosine-protein kinase Src, sequence (P12931 2-536 limits assumed): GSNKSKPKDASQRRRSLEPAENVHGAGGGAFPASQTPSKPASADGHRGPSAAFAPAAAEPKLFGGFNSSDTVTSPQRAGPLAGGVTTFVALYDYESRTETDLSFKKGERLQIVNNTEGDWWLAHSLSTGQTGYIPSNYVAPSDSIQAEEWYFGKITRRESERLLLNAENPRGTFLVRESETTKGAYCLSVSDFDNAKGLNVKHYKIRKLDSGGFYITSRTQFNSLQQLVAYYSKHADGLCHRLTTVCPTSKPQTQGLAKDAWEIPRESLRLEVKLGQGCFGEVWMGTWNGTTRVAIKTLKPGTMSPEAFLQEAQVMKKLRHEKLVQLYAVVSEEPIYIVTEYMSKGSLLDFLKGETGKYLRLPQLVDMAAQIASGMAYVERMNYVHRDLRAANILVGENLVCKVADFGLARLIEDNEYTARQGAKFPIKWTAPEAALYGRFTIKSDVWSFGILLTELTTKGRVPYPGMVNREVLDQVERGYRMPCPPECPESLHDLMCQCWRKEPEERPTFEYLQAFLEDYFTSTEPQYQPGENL
smiles,measurement,setting,value
C1=N/C2=N/c3ccc(OCCN4CCCC4)c(c3)COC/C=C/COCc3cccc(c3)C(=C1)N2 [PACRITINIB],inhibition in vivo at 150 mg/kg,[1],83%
same,Activity,[2],42%
same,Activity,[3],99%
CN1C/C=C/CCOc2cccc(c2)-c2ccnc(n2)Nc2cccc(c2)C1 [ZOTIRACICLIB],inhibition in vivo at 40 mg/kg,[4],113%
C[C@H]1CC(C(=O)CC#N)[C@]12CCN(c1ncnc3[nH]ccc13)C2 (some centres not stated),IC50,[5],2.6 nM
CC(=O)c1ccc(NC(=O)N2CCN(c3nc(Nc4ccc(N5CCOCC5)cc4)ncc3Cl)CC2)cc1,IC50,[6],1.8 nM
same,IC50,[7],0.68 nM
same,IC50,[8],500 nM
same,IC50,[9],19 nM
same,half-life,[10],31 min
COc1ccc2c(c1)/C(=C1/Nc3ccccc3/C1=N\OCC(O)CO)C(=O)N2 (configuration not stated),IC50,[11],10.4 nM
same,IC50,[12],10.4 nM
same,IC50,[13],74.1 nM
same,IC50,[14],0.7 nM
same,IC50,[15],680 nM
COc1ccc2cc1COC/C=C/COCc1cccc(c1)-c1ccnc(n1)N2,IC50,[16],70 nM
same,IC50,[17],190 nM
